Laboratory results as given in patent US11542233B2, “Compounds, compositions and methods of use” (Aquinnah Pharmaceuticals, Inc., priority 2016, dated 2023).

These compounds were tested on TDP-43 aggregation in PC12 cells stably expressing GFP-tagged mutant TDP-43 (TDP-43^Q33IK::eGFP) (assay: In vitro efficacy assay: inhibition of TDP-43 inclusions, concentration-response, fluorescence microscopy). Details: Rattus norvegicus, PC-12, PC12 cells, 1 hour pre-treatment, 15 μM sodium arsenite for 23 hours, 10-point dose response curve.
Type: cell-based
In short: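 PC12 cells stably expressing TDP-43^Q33IK::eGFP pre-treated 1 h with compound, then stressed with 15 μM sodium arsenite for 23 h. Fluorescence microscopy gave the fraction of GFP-positive cells bearing aggregates; IC50 from concentration-response, reported in bins: A <100 nM, B 100–500 nM, C 500 nM–2 μM, D >2 μM.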

Row | IC50 [µM] | Structure (SMILES)
1 | < 0.1 | CCN(C(=O)c1cc2ncccc2[nH]1)[C@H]1CCC[C@@H](NCc2ccc(F)cc2)C1 [Compound 152]
2 | < 0.1 | CCN(C(=O)c1cc2c(OC)cccc2[nH]1)[C@H]1CCC[C@@H](NCc2ccccc2)C1 [Compound 129]
3 | < 0.1 | CCN(C(=O)c1cc2cc(C(F)(F)F)ccc2[nH]1)[C@H]1CCC[C@@H](NCc2ccccc2)C1 [Compound 544]
4 | < 0.1 | CCN(C(=O)c1cc2cc(F)ccc2[nH]1)[C@H]1CCC[C@@H](NCc2oc3ccccc3c2C)C1 [Compound 548]
5 | 0.1 to 0.5 | C#CCCC1(CCOc2ccc(CN[C@@H]3CCC[C@H](N(CC)C(=O)c4cc5ccccc5[nH]4)C3)cc2)N=N1 [Compound 425, N-((1S,3R)-3-((4-(2-(3-(but-3-yn-1-yl)-3H-diazirin-3-yl)ethoxy)benzyl)amino)cyclohexyl)-N-ethyl-1H-indole-2-carboxamide]
6 | < 0.1 | CCN(C(=O)c1cc2ccccc2[nH]1)[C@H]1CCC[C@@H](NCc2ccc(F)cc2)C1 [Compound 123, N-ethyl-N-((1S,3R)-3-((4-fluorobenzyl)amino)cyclohexyl)-1H-indole-2-carboxamide]
7 | < 0.1 | CCN(C(=O)c1cc2ccccc2[nH]1)[C@H]1CCC[C@@H](NCc2cc3cc(F)ccc3o2)C1 [Compound 433]
8 | < 0.1 | CCN(C(=O)c1cc2ccccc2[nH]1)[C@H]1CCC[C@@H](NCc2ccc3ocnc3c2)C1 [Compound 459]
9 | < 0.1 | CCN(C(=O)c1cc2ncccc2[nH]1)[C@H]1CCC[C@@H](NCc2ccc(N=[N+]=[N-])cc2)C1 [Compound 407]
10 | < 0.1 | CCN(C(=O)c1cc2cc(C#N)ccc2[nH]1)[C@H]1CCC[C@@H](NCc2cccc(F)c2)C1 [Compound 534]
11 | 0.1 to 0.5 | O=C(c1cc2ccccc2[nH]1)N(CC(F)(F)F)[C@H]1CCC[C@@H](NCc2ccncc2)C1 [Compound 177]
12 | < 0.1 | CCN(C(=O)c1cc2ccccc2[nH]1)[C@H]1CCC[C@@H](NCc2ccc(Cl)cc2)C1 [Compound 135]
13 | 0.5 to 2 | CCN(C(=O)c1cc2ccccc2[nH]1)[C@H]1CCC[C@@H](NCc2cncnc2)C1 [Compound 130]
14 | < 0.1 | CCN(C(=O)c1cc2cc(F)ccc2[nH]1)[C@H]1CCC[C@@H](NCc2cc3ccccc3o2)C1 [Compound 550]
15 | < 0.1 | CCN(C(=O)c1nc2ccccc2[nH]1)[C@H]1CCC[C@@H](NCc2ccc(OC(F)(F)F)cc2)C1 [Compound 473]
16 | < 0.1 | CCN(C(=O)c1cc2ccccc2[nH]1)[C@H]1CCC[C@@H](NCc2ccccn2)C1 [Compound 127]
17 | < 0.1 | CCN(C(=O)c1nc2ccccc2[nH]1)[C@H]1CCC[C@@H](NCc2cccc(F)c2)C1 [Compound 480]
18 | < 0.1 | CCN(C(=O)c1cc2ccccc2[nH]1)[C@H]1CCC[C@@H](NCc2ccc(N=[N+]=[N-])cc2)C1 [Compound 317]
19 | < 0.1 | CCN(C(=O)c1nc2cc(F)ccc2[nH]1)[C@H]1CCC[C@@H](NCc2ccc(C#N)cc2)C1 [Compound 527]

Continued, compound first:

Row | Structure (SMILES) | IC50 [µM]
20 | CCN(C(=O)c1nc2cc(C(F)(F)F)ccc2[nH]1)[C@H]1CCC[C@@H](NCc2ccccc2)C1 [Compound 545] | < 0.1
21 | CCN(C(=O)c1nc2cc(F)ccc2[nH]1)[C@H]1CCC[C@@H](NCc2oc3ccccc3c2C#N)C1 [compound 510] | < 0.1
22 | C#CCOc1cccc(CN[C@@H]2CCC[C@H](N(CC)C(=O)c3nc4c(N)cccc4[nH]3)C2)c1 [Compound 568] | < 0.1
23 | CCN(C(=O)c1nc2ccccc2[nH]1)[C@H]1CCC[C@@H](NCc2cc3ccccc3o2)C1 [Compound 479] | < 0.1
24 | CCN(C(=O)c1cc2ccccc2[nH]1)[C@H]1CCC[C@@H](N[C@@H](c2cncnc2)C(F)(F)F)C1 (single isomer, unassigned) [Compound 413] | 0.5 to 2
25 | CCN(C(=O)c1cc2ccccc2[nH]1)[C@@H]1C[C@H](NCc2ccccc2)CS(=O)(=O)C1 [Compound 313, N-((3R,5S)-5-(benzylamino)-1,1-dioxidotetrahydro-2H-thiopyran-3-yl)-N-ethyl-1H-indole-2-carboxamide] | > 2
26 | CCN(C(=O)c1nc2ccccc2[nH]1)[C@H]1CCC[C@@H](NCc2ccc3ncoc3c2)C1 [Compound 487, N-((1S,3R)-3-((benzo[d]oxazol-6-ylmethyl)amino)cyclohexyl)-N-ethyl-1H-benzo[d]imidazole-2-carboxamide] | < 0.1
27 | CCN(C(=O)c1cc2ncccc2[nH]1)[C@H]1CCC[C@@H](NCc2cc3ccccc3o2)C1 [Compound 444] | < 0.1
28 | CCN(C(=O)c1cc2ccccc2[nH]1)[C@H]1CCC[C@H](NCC2CCOCC2)C1 [Compound 119] | < 0.1
29 | CCN(C(=O)c1cc2ncccc2[nH]1)[C@H]1CCC[C@@H](NCc2cc(C)on2)C1 [Compound 445] | 0.1 to 0.5
30 | CCN(C(=O)c1cc2ncccc2[nH]1)[C@H]1CCC[C@@H](NCc2nccs2)C1 [Compound 446] | 0.5 to 2
31 | CCN(C(=O)c1nc2ccccc2[nH]1)[C@H]1CCC[C@@H](NCc2ccc3cncn3c2)C1 [Compound 492] | < 0.1
32 | C#CCOc1ccc(CN[C@@H]2CCC[C@H](N(CC)C(=O)c3nc4cc([N+](=O)[O-])ccc4[nH]3)C2)cc1 [Compound 561, N-ethyl-5-nitro-N-((1S,3R)-3-((4-(prop-2-yn-1-yloxy)benzyl)amino)cyclohexyl)-1H-benzo[d]imidazole-2-carboxamide] | < 0.1
33 | CCN(C(=O)c1cc2ncccc2[nH]1)[C@H]1CCC[C@@H](NCc2cc(C3CC3)on2)C1 [Compound 436] | < 0.1
34 | CCN(C(=O)c1cc2c([nH]1)CCOC2)[C@H]1CCC[C@@H](NCc2ccccc2)C1 [Compound 503] | 0.1 to 0.5
35 | CCN(C(=O)c1nc2cc(C#N)ccc2[nH]1)[C@H]1CCC[C@@H](NCc2oc3ccccc3c2C#N)C1 [Compound 520] | < 0.1
36 | O=C(c1cc2ccccc2[nH]1)N(CC(F)(F)F)[C@H]1CCC[C@@H](NCC2CCOCC2)C1 [Compound 183] | > 2
37 | C#CCOc1ccc(CN[C@@H]2CCC[C@H](N(CC)C(=O)c3nc4cc(N=[N+]=[N-])ccc4[nH]3)C2)cc1 [Compound 557, 5-azido-N-ethyl-N-((1S,3R)-3-((4-(prop-2-yn-1-yloxy)benzyl)amino)cyclohexyl)-1H-benzo[d]imidazole-2-carboxamide] | < 0.1
38 | CCN(C(=O)c1cc2ccccc2[nH]1)[C@H]1CCC[C@@H](NCc2nnc(C3CC3)s2)C1 [Compound 467, N-((1S,3R)-3-(((5-cyclopropyl-1,3,4-thiadiazol-2-yl)methyl)amino)cyclohexyl)-N-ethyl-1H-indole-2-carboxamide] | < 0.1
39 | CCN(C(=O)c1cc2cc(C#N)ccc2[nH]1)[C@H]1CCC[C@@H](NCc2oc3ccccc3c2C)C1 [Compound 535] | < 0.1
40 | CCN(C(=O)c1nc2ccccc2[nH]1)[C@H]1CCC[C@@H](NCc2ccc3nc(C)oc3c2)C1 [Compound 530, N-ethyl-N-((1S,3R)-3-(((2-methylbenzo[d]oxazol-6-yl)methyl)amino)cyclohexyl)-1H-benzo[d]imidazole-2-carboxamide] | < 0.1
41 | C#CCOc1cccc(CN[C@@H]2CCC[C@H](N(CC)C(=O)c3nc4c(N=[N+]=[N-])cccc4[nH]3)C2)c1 [Compound 560] | < 0.1
42 | O=C(c1cc2ccccc2[nH]1)N(CC(F)(F)F)[C@H]1COC[C@@H](NCc2ccccc2)C1 [Compound 302] | 0.1 to 0.5
